Data: US20250170112A1, “ADENOSINE LIGANDS FOR THE TREATMENT OF NEUROLOGICAL DISORDERS” (Lucy Therapeutics, Inc., priority 2022, published 2025)

Columns and labels:
[1] = biological target: T1, human Adenosine A1 receptor (Homo sapiens, UniProt P30542); assay: GTPγS scintillation proximity assay, agonist testing; type: biochemical; settings: agonist activity; membrane extracts of CHO-K1 cells expressing recombinant human A1; read-out: A1AR EC50
T1 construct: host or cells: CHO-K1
T1 sequence (P30542 1-326): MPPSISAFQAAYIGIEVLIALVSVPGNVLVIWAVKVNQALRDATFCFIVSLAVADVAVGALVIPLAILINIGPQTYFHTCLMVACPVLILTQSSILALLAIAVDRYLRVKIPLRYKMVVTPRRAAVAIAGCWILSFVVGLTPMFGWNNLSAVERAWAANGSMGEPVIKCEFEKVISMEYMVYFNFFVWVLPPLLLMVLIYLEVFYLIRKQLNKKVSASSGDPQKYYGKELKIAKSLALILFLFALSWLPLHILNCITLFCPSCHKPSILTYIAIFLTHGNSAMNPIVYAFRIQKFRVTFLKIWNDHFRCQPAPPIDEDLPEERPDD
Procedure, shortened: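 Agonist-stimulated [35S]GTPγS binding to membranes of CHO-K1 cells expressing recombinant human A1 receptor, in 20 mM HEPES pH 7.4, 100 mM NaCl, 10 μg/mL saponin, with receptor-optimized MgCl2 and GDP. GTPγ[35S] 0.1 nM final with WGA SPA beads; 1 h at room temperature, then scintillation counting.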

[2] = biological target: T2, human A2B (Homo sapiens, UniProt P29275); assay: cAMP HTRF assay for Gs coupled receptor, agonist test; type: cell-based; settings: agonist activity; HEK293 cells expressing recombinant human A2B; read-out: A2BAR EC50
T2 construct: expressed in transfected cells; host or cells: HEK293
T2 sequence (P29275 1-332): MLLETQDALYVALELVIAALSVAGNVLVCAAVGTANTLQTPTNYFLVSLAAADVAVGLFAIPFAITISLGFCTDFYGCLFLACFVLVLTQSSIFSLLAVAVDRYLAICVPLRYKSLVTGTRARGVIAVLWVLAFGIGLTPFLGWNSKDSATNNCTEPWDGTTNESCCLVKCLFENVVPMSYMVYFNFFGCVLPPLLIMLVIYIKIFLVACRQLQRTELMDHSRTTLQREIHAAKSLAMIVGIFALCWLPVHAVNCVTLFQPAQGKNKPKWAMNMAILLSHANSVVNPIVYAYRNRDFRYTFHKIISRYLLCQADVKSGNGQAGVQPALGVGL
Procedure, shortened: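 Recombinant cells were incubated 30 min at room temperature with increasing agonist concentrations. Lysis buffer with cAMP-d2 and anti-cAMP cryptate was added, with 1 h at room temperature before the HTRF fluorescence ratio was read. Reference compounds were run in parallel.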

Compound | EC50 [1] | EC50 [2]
COCCOc1ccc(-c2c(C#N)c(SCc3cnccn3)nc(N3CC(F)C3)c2C#N)cc1 [Compound 252] | > 10 µM | > 10 µM
N#Cc1c(SCc2cccnc2)nc(N2CCC2)c(C#N)c1-c1ccc(OCCOC(F)F)cc1 [Compound 262] | > 10 µM | > 10 µM
COCCOc1ccc(-c2c(C#N)c(N)nc(SCc3cccc(OC(F)(F)F)c3)c2C#N)cc1 [Compound 35] | 0.238 µM | > 10 µM
CNC(=O)CSc1nc(N2CCCC2)c(C#N)c(-c2ccc(OCCOC)cc2)c1C#N [Compound 79] | 1.79 µM | 0.045 µM
N#Cc1c(N)nc(SCC2COCCO2)c(C#N)c1-c1ccc(OC2COC2)cc1 (stereo not drawn) [Compound 301] | 0.228 µM | > 10 µM
N#Cc1c(N)nc(SCc2cccnc2)c(C#N)c1-c1ccc(O[C@H]2C[C@H](O)C2)cc1 [Compound 295, 2-Amino-4-(4-((1r,3r)-3-hydroxycyclobutoxy)phenyl)-6-((pyridin-3-ylmethyl)thio)pyridine-3,5-dicarbonitrile] | 0.0016 µM | 0.00979 µM
COCCOc1ccc(-c2c(C#N)c(N)nc(SCc3ccc4cc[nH]c4c3)c2C#N)cc1 [Compound 44] | 0.0343 µM | > 10 µM
N#Cc1c(SCc2cnccn2)nc(N2CCC2)c(C#N)c1-c1ccc(OCCO)cc1 [Compound 6] | 0.586 µM | 0.213 µM
N#Cc1c(SCC2COC2)nc(N2CCCC2)c(C#N)c1-c1ccc(OC2COC2)cc1 [Compound 292] | 0.093 µM | > 10 µM
N#Cc1c(N)nc(SCCC(F)(F)F)c(C#N)c1-c1ccc(OC2CCCOC2)cc1 (stereo not drawn) [Compound 325] | > 10 µM | > 10 µM
N#Cc1c(N)nc(SCc2cncc3[nH]ccc23)c(C#N)c1-c1ccc(OCCO)cc1 [Compound 2] | > 10 µM | 0.00028 µM
COCCOc1ccc(-c2c(C#N)c(N)nc(SCc3nccc4[nH]ccc34)c2C#N)cc1 [Compound 217] | > 10 µM | > 10 µM
